Reference: PMC8306930, “A Comparative Analysis of the In Vitro Anticancer Activity of Iridium(III) {η^5-C5Me4R} Complexes with Variable R Groups” (International Journal of Molecular Sciences, 2021)

Key:
[1] = test system: MCF-7 human breast cancer cells; experiment: CV viability assay, MCF-7; type: cell-based; conditions: MCF-7, 72 h exposure, mean ± SD
Description: (§1) The rat astrocytoma C6 cell line and murine melanoma B16 cell line were kindly gifted by Dr. L. Harhaji–Trajkovic, Institute for Biological Research “Sinisa Stankovic”—National Institute of Republic of Serbia (IBISS), and from Dr. Sinisa Radulovic (Institute for Oncology and Radiology of Serbia), respectively. Human colorectal (SW620 and HCT116), breast (MCF-7), and ovarian (A2780) cancer cell lines and non-malignant fibroblast cell line (MRC5) were purchased from the American Type Culture Collection (ATCC, Manassas, Virginia, USA). […] For viability assays, cells were seeded in listed densities/well: B16 and C6: 3 × 10^3; SW620: 9 × 10^3; A2780 and HCT116: 5 × 10^3; MCF-7: 8 × 10^3 and MRC5: 7 × 10^3. For flow cytometry, A2780 cells were seeded at 2 × 10^5 density/well in 6-well plates. Peritoneal macrophages were collected from the peritoneal cavity of C57BL/6 mice from the animal facility of IBISS by cavity lavage with ice-cold PBS. […] Macrophages were counted, seeded at 2 × 10^5 cells/well in 96-well plates for viability assay, and then left for 2 h to adhere. Before treatment, non-adherent cells were removed. The handling of animals and protocol for obtaining macrophages is in the agreement with the rules of the European Union and approved by the Institutional Animal Care and Use Committee at IBISS (No. 02-09/16).
(§2) Stock solutions of 1b, 1c, 1d, and 1e were prepared in ethanol at concentration of 20 mM and kept at −20 °C, while 10 mM stock solution of cisplatin was prepared in DMF just before the usage. Desired final concentrations were obtained by dilution in culture medium.
(§3) Cells were treated with various concentrations (up to 50 or 100 µM) of the above-mentioned complexes for 72 h. For the detection of mitochondrial respiration, cells were cultivated in the presence of MTT staining solution (0.5 mg/mL) for approximately 1 h at 37 °C. The dye was then discarded, and the formed formazan crystals (purple) were dissolved in DMSO. For an evaluation of viable attached cells, cells were fixed with 4% PFA for 10 min at room temperature, and subsequently stained for 15 min with 0.02% CV solution. […] The absorbance was measured with an automated microplate reader at 540 nm, with a reference wavelength of 670 nm. The IC50 values were calculated using a four-parameter logistic function and presented as mean ± SD from three independent experiments.

C6 rat glioma cells [2] = experiment: CV viability assay, C6; type: cell-based; conditions: C6, 72 h exposure, mean ± SD
Description: as §1, §2, §3

B16 mouse melanoma cells [3] = experiment: MTT viability assay, B16; type: cell-based; conditions: B16, 72 h exposure, mean ± SD
Description: as §1, §2, §3

[4] = test system: panel of six human and rodent cancer cell lines and MRC5; experiment: Cytotoxic activity over the whole cell line panel (MTT and CV); type: cell-based; conditions: 72 h, all investigated cell lines
Description: Cells were treated with various concentrations (up to 50 or 100 µM) of the above-mentioned complexes for 72 h. For the detection of mitochondrial respiration, cells were cultivated in the presence of MTT staining solution (0.5 mg/mL) for approximately 1 h at 37 °C. The dye was then discarded, and the formed formazan crystals (purple) were dissolved in DMSO. For an evaluation of viable attached cells, cells were fixed with 4% PFA for 10 min at room temperature, and subsequently stained for 15 min with 0.02% CV solution. Cells were then washed with tap water, dried in air, and the CV dye was dissolved in 33% acetic acid. The absorbance was measured with an automated microplate reader at 540 nm, with a reference wavelength of 670 nm. The IC50 values were calculated using a four-parameter logistic function and presented as mean ± SD from three independent experiments.

[5] = test system: HCT116 human colorectal carcinoma cells; experiment: MTT viability assay, HCT116; type: cell-based; conditions: HCT116, 72 h exposure, mean ± SD
Description: as §1, §2, §3

[6] = test system: A2780 human ovarian cancer cells; experiment: CV viability assay, A2780; type: cell-based; conditions: A2780, 72 h exposure, mean ± SD
Description: as §1, §2, §3

[7] = test system: HCT116 human colorectal carcinoma cells; experiment: CV viability assay, HCT116; type: cell-based; conditions: HCT116, 72 h exposure, mean ± SD
Description: as §1, §2, §3

[8] = test system: MRC5 human fibroblast cells; experiment: CV viability assay, MRC5; type: cell-based; conditions: MRC5, 72 h exposure, mean ± SD
Description: as §1, §2, §3

[9] = test system: SW620 human colorectal adenocarcinoma cells; experiment: MTT viability assay, SW620; type: cell-based; conditions: SW620, 72 h exposure, mean ± SD
Description: as §1, §2, §3

[10] = test system: SW620 human colorectal adenocarcinoma cells; experiment: CV viability assay, SW620; type: cell-based; conditions: SW620, 72 h exposure, mean ± SD
Description: as §1, §2, §3

B16 mouse melanoma cells [11] = experiment: CV (crystal violet) viability assay, B16; type: cell-based; conditions: B16, 72 h exposure, mean ± SD
Description: as §1, §2, §3

[12] = Stability in D2O mixtures by 1H NMR; type: physicochemical; conditions: acetone-d6/D2O 2:1 (1b,d) or methanol-d4/D2O 2:1 (1c), 72 h at 37 °C; progressive precipitation
Description: Complexes were dissolved in acetone-d6/D2O 2:1 (1b,d), DMSO-d6/D2O 2:1 (2a–d and 3), or methanol-d4/D2O 2:1 (1c) ([Ir] ≈ 10^−3 mol L^−1), then dimethyl sulfone (0.05 mL, 0.164 mmol) was added as internal standard. The mixtures were filtered through a celite pad, and the filtrated solutions were analyzed by ^1H NMR spectroscopy.
The solutions were then stored for 72 h at 37 °C, and new NMR analyses were subsequently performed.

[13] = test system: A2780 human ovarian cancer cells; experiment: MTT viability assay, A2780; type: cell-based; conditions: A2780, 72 h exposure, mean ± SD
Description: as §1, §2, §3

C6 rat glioma cells [14] = experiment: MTT viability assay, C6; type: cell-based; conditions: C6, 72 h exposure, mean ± SD
Description: as §1, §2, §3

[15] = test system: MCF-7 human breast cancer cells; experiment: MTT viability assay, MCF-7; type: cell-based; conditions: MCF-7, 72 h exposure, mean ± SD
Description: as §1, §2, §3

[16] = test system: MRC5 human fibroblast cells; experiment: MTT viability assay, MRC5; type: cell-based; conditions: MRC5, 72 h exposure, mean ± SD
Description: as §1, §2, §3

A2780 cells [17] = experiment: Intracellular nitric oxide, DAF-FM flow cytometry; type: cell-based, human; conditions: A2780, IC50 doses, 48 h, with respect to untreated cultures
Description: (§4) Experiments were carried out in three independent replicates.

A2780 cells [18] = experiment: Cell proliferation, CFSE flow cytometry; type: cell-based, human; conditions: A2780, IC50 doses, 72 h of incubation
Description: as §4

A2780 cells [19] = experiment: ROS/RNS, DHR123 flow cytometry; type: cell-based, human; conditions: A2780, IC50 doses, 48 h, DHR123, with respect to untreated cultures
Description: as §4

A2780 cells [20] = conditions: A2780, IC50 doses, 48 h, AnnV/PI
Description: as §4

A2780 cells [21] = experiment: Mitochondrial membrane potential, DiOC6(3) flow cytometry; type: cell-based, human; conditions: A2780, IC50 doses, 24 h, in comparison with untreated cells
Description: as §4

[22] = test system: primary mouse peritoneal cells; experiment: Viability of primary mouse peritoneal cells (macrophages); type: cell-based
Description: The rat astrocytoma C6 cell line and murine melanoma B16 cell line were kindly gifted by Dr. L. Harhaji–Trajkovic, Institute for Biological Research “Sinisa Stankovic”—National Institute of Republic of Serbia (IBISS), and from Dr. Sinisa Radulovic (Institute for Oncology and Radiology of Serbia), respectively. Human colorectal (SW620 and HCT116), breast (MCF-7), and ovarian (A2780) cancer cell lines and non-malignant fibroblast cell line (MRC5) were purchased from the American Type Culture Collection (ATCC, Manassas, Virginia, USA). […] For viability assays, cells were seeded in listed densities/well: B16 and C6: 3 × 10^3; SW620: 9 × 10^3; A2780 and HCT116: 5 × 10^3; MCF-7: 8 × 10^3 and MRC5: 7 × 10^3. For flow cytometry, A2780 cells were seeded at 2 × 10^5 density/well in 6-well plates. […] Macrophages were counted, seeded at 2 × 10^5 cells/well in 96-well plates for viability assay, and then left for 2 h to adhere. […]
Cells were treated with various concentrations (up to 50 or 100 µM) of the above-mentioned complexes for 72 h. […] The absorbance was measured with an automated microplate reader at 540 nm, with a reference wavelength of 670 nm. The IC50 values were calculated using a four-parameter logistic function and presented as mean ± SD from three independent experiments.

A2780 cells [23] = experiment: Autophagosomes, acridine orange flow cytometry; type: cell-based, human; conditions: A2780, IC50 doses, 48 h, AO
Description: as §4

A2780 cells [24] = experiment: Senescence, FDG assay of beta galactosidase activity, flow cytometry; type: cell-based, human; conditions: A2780, IC50 doses, 48 h, in comparison to the control
Description: as §4

Molecule	IC50 [1] [µM]	IC50 (C6 rat glioma cells [2]) [µM]	IC50 (B16 mouse melanoma cells [3]) [µM]	IC50 [5] [µM]	IC50 [6] [µM]	IC50 [7] [µM]	IC50 [8] [µM]	IC50 [9] [µM]	IC50 [10] [µM]	IC50 (B16 mouse melanoma cells [11]) [µM]	IC50 [13] [µM]	IC50 (C6 rat glioma cells [14]) [µM]	IC50 [15] [µM]	IC50 [16] [µM]	further results
CC1=C(C)[C](c2ccc(F)cc2)([Ir]([Cl])[Cl])C(C)=C1C.CC1=C(C)[C](c2ccc(F)cc2)([Ir]([Cl])[Cl])C(C)=C1C [Complex 1d]	30 ± 0.4	49 ± 1	20.4 ± 0.1	8.1 ± 0.7	20.2 ± 0.3	14.5 ± 1.5	22.2 ± 0.1	8 ± 2	18.5 ± 0.4	28.1 ± 0.1	16 ± 0.3	34 ± 2	9.2 ± 0.5	19.1 ± 0.2	Cytotoxic activity in words [4]: moderate cytotoxicity; Variation of 1H NMR spectra on storage [12]: no significant variations
tetramethylcyclopentadienyl)(2-phenylpyridine)iridium(III)chloride [Complex 2b]	37 ± 3	2.6 ± 0.1	2.5 ± 0.2	8 ± 0.2	4.4 ± 0.6	7 ± 2	6 ± 2	2.6 ± 0.1	2.9 ± 0.5	3 ± 0.1	5.5 ± 0.5	2.4 ± 0.3	8.6 ± 0.2	6.7 ± 0.2	Increase of intracellular level of NO (A2780 cells [17]): 40.9%; Effect on cell proliferation (A2780 cells [18]): inhibition of cell proliferation; Increase of intracellular levels of H2O2, HOCl and ONOO− (in total) (A2780 cells [19]): 46.4%; Induction of apoptotic cell death (A2780 cells [20]): modest induction; Mitochondrial membrane hyperpolarization (A2780 cells [21]): 32.3%; Effect on viability of primary mouse peritoneal cells [22]: did not affect viability; High percentage of autophagosomes (A2780 cells [23]): not recognized; Increase of beta galactosidase activity (A2780 cells [24]): 38.4%
N.N.[Cl][Pt][Cl] [Cisplatin, cisplatin, reference compound]	1.2 ± 0.3	1.2 ± 0.1	5.6 ± 0.2	1.5 ± 0.1	3.8 ± 0.5	8 ± 0.7	0.8 ± 0.1	11.6 ± 0.1	11 ± 3	11.6 ± 0.3	1.9 ± 0.2	0.6 ± 0.2	0.8 ± 0.2	0.6 ± 0.2	
